From the supplement of paper PMC13380429

Legend:
Conditions in all cases: 72 h
[1] = test system: Caco-2; test: relative viability EC50 (midpoint between 100% and the lowest measured viability); higher = less toxic
[2] = test system: HepG2; test: as above
[3] = test system: Calu-3; test: as above
[4] = test system: U2OS; test: as above
[5] = test system: Vero E6; test: as above
[6] = test system: Caco-2; test: drug sensitivity score (DSS) for viability; higher = more toxic; extreme values may be limits of the assay
[7] = test system: HepG2; test: as above
[8] = test system: Calu-3; test: as above
[9] = test system: U2OS; test: as above
[10] = test system: Vero E6; test: as above
[11] = test system: Caco-2; test: cell viability relative to DMSO; higher = less toxic
[12] = test system: HepG2; test: as above
[13] = test system: Calu-3; test: as above
[14] = test system: U2OS; test: as above
[15] = test system: Vero E6; test: as above

## CC(=O)NCC(=O)N1[C@@H]2CC[C@H]1c1ccc(Nc3ncc(C(F)(F)F)c(NC4CCC4)n3)cc12
[1]
  relative viability EC50: 1.28 µM
[2]
  relative viability EC50: 1.27 µM
[3]
  relative viability EC50: > 10 µM
[4]
  relative viability EC50: 1.37 µM
[5]
  relative viability EC50: 1.39 µM
[6]
  drug sensitivity score: 6.2
[7]
  drug sensitivity score: 9.7
[8]
  drug sensitivity score: 0.1
[9]
  drug sensitivity score: 9.6
[10]
  drug sensitivity score: 5.2
[11]; 1 nM
  cell viability: 95.9%
[11]; 10 nM
  cell viability: 89.2%
[11]; 100 nM
  cell viability: 101%
[11]; 1000 nM
  cell viability: 79.3%
[11]; 10000 nM
  cell viability: 40.7%
[12]; 1 nM
  cell viability: 93.8%
[12]; 10 nM
  cell viability: 99.6%
[12]; 100 nM
  cell viability: 84.6%
[12]; 1000 nM
  cell viability: 62.4%
[12]; 10000 nM
  cell viability: 3.4%
[13]; 1 nM
  cell viability: 101%
[13]; 10 nM
  cell viability: 97.7%
[13]; 100 nM
  cell viability: 99.4%
[13]; 1000 nM
  cell viability: 121%
[13]; 10000 nM
  cell viability: 83%
[14]; 1 nM
  cell viability: 98.6%
[14]; 10 nM
  cell viability: 97.4%
[14]; 100 nM
  cell viability: 94.4%
[14]; 1000 nM
  cell viability: 67.3%
[14]; 10000 nM
  cell viability: 2.9%
[15]; 1 nM
  cell viability: 92.6%
[15]; 10 nM
  cell viability: 98.6%
[15]; 100 nM
  cell viability: 96.6%
[15]; 1000 nM
  cell viability: 82.1%
[15]; 10000 nM
  cell viability: 46%

## CC(C)OC(=O)c1cc2c(OC[C@@H](O)CNC(C)(C)C)cccc2[nH]1
[1]
  relative viability EC50: > 10 µM
[2]
  relative viability EC50: > 10 µM
[3]
  relative viability EC50: > 10 µM
[4]
  relative viability EC50: > 10 µM
[5]
  relative viability EC50: > 10 µM
[6]
  drug sensitivity score: 0
[7]
  drug sensitivity score: 0
[8]
  drug sensitivity score: 0
[9]
  drug sensitivity score: 0
[10]
  drug sensitivity score: 0
[11]; 1 nM
  cell viability: 92.3%
[11]; 10 nM
  cell viability: 93%
[11]; 100 nM
  cell viability: 105%
[11]; 1000 nM
  cell viability: 89.5%
[11]; 10000 nM
  cell viability: 103%
[12]; 1 nM
  cell viability: 98.2%
[12]; 10 nM
  cell viability: 103%
[12]; 100 nM
  cell viability: 102%
[12]; 1000 nM
  cell viability: 95.7%
[12]; 10000 nM
  cell viability: 90.4%
[13]; 1 nM
  cell viability: 114%
[13]; 10 nM
  cell viability: 102%
[13]; 100 nM
  cell viability: 91.6%
[13]; 1000 nM
  cell viability: 108%
[13]; 10000 nM
  cell viability: 91.3%
[14]; 1 nM
  cell viability: 96.1%
[14]; 10 nM
  cell viability: 99.3%
[14]; 100 nM
  cell viability: 96.1%
[14]; 1000 nM
  cell viability: 98.3%
[14]; 10000 nM
  cell viability: 91.9%
[15]; 1 nM
  cell viability: 101%
[15]; 10 nM
  cell viability: 102%
[15]; 100 nM
  cell viability: 99.6%
[15]; 1000 nM
  cell viability: 93.4%
[15]; 10000 nM
  cell viability: 94.2%

## CC(C)[C@H](NS(=O)(=O)c1ccc(-c2ccc(Br)cc2)cc1)C(=O)O
[1]
  relative viability EC50: > 10 µM
[2]
  relative viability EC50: > 10 µM
[3]
  relative viability EC50: > 10 µM
[4]
  relative viability EC50: > 10 µM
[5]
  relative viability EC50: > 10 µM
[6]
  drug sensitivity score: 0
[7]
  drug sensitivity score: 0
[8]
  drug sensitivity score: 0
[9]
  drug sensitivity score: 0
[10]
  drug sensitivity score: 0
[11]; 1 nM
  cell viability: 96.3%
[11]; 10 nM
  cell viability: 86.2%
[11]; 100 nM
  cell viability: 93.5%
[11]; 1000 nM
  cell viability: 92.6%
[11]; 10000 nM
  cell viability: 89.8%
[12]; 1 nM
  cell viability: 98.3%
[12]; 10 nM
  cell viability: 109%
[12]; 100 nM
  cell viability: 87.8%
[12]; 1000 nM
  cell viability: 110%
[12]; 10000 nM
  cell viability: 110%
[13]; 1 nM
  cell viability: 106%
[13]; 10 nM
  cell viability: 102%
[13]; 100 nM
  cell viability: 91.4%
[13]; 1000 nM
  cell viability: 104%
[13]; 10000 nM
  cell viability: 92.9%
[14]; 1 nM
  cell viability: 101%
[14]; 10 nM
  cell viability: 97.5%
[14]; 100 nM
  cell viability: 99.5%
[14]; 1000 nM
  cell viability: 96.4%
[14]; 10000 nM
  cell viability: 102%
[15]; 1 nM
  cell viability: 93.2%
[15]; 10 nM
  cell viability: 95.9%
[15]; 100 nM
  cell viability: 87.7%
[15]; 1000 nM
  cell viability: 92.2%
[15]; 10000 nM
  cell viability: 102%

## CC(CNS(=O)(=O)C(C)C)c1ccc(-c2ccc(C#N)cc2)cc1 (stereo not drawn)
[1]
  relative viability EC50: > 10 µM
[2]
  relative viability EC50: 3.06 µM
[3]
  relative viability EC50: > 10 µM
[4]
  relative viability EC50: > 10 µM
[5]
  relative viability EC50: > 10 µM
[6]
  drug sensitivity score: 0.4
[7]
  drug sensitivity score: 4
[8]
  drug sensitivity score: 0
[9]
  drug sensitivity score: 0.1
[10]
  drug sensitivity score: 0
[11]; 1 nM
  cell viability: 98%
[11]; 10 nM
  cell viability: 106%
[11]; 100 nM
  cell viability: 97.7%
[11]; 1000 nM
  cell viability: 104%
[11]; 10000 nM
  cell viability: 80.8%
[12]; 1 nM
  cell viability: 111%
[12]; 10 nM
  cell viability: 117%
[12]; 100 nM
  cell viability: 104%
[12]; 1000 nM
  cell viability: 98.9%
[12]; 10000 nM
  cell viability: 30.5%
[13]; 1 nM
  cell viability: 93.8%
[13]; 10 nM
  cell viability: 97.6%
[13]; 100 nM
  cell viability: 102%
[13]; 1000 nM
  cell viability: 108%
[13]; 10000 nM
  cell viability: 90.4%
[14]; 1 nM
  cell viability: 103%
[14]; 10 nM
  cell viability: 102%
[14]; 100 nM
  cell viability: 99.2%
[14]; 1000 nM
  cell viability: 101%
[14]; 10000 nM
  cell viability: 85.8%
[15]; 1 nM
  cell viability: 109%
[15]; 10 nM
  cell viability: 99.9%
[15]; 100 nM
  cell viability: 106%
[15]; 1000 nM
  cell viability: 97.7%
[15]; 10000 nM
  cell viability: 98.6%

## C[C@H](NC(=O)CNC(=O)c1cccc(Cl)c1)c1ccccc1
[1]
  relative viability EC50: > 10 µM
[2]
  relative viability EC50: > 10 µM
[3]
  relative viability EC50: > 10 µM
[4]
  relative viability EC50: > 10 µM
[5]
  relative viability EC50: > 10 µM
[6]
  drug sensitivity score: 0
[7]
  drug sensitivity score: 0
[8]
  drug sensitivity score: 0
[9]
  drug sensitivity score: 0
[10]
  drug sensitivity score: 0
[11]; 1 nM
  cell viability: 100%
[11]; 10 nM
  cell viability: 102%
[11]; 100 nM
  cell viability: 96.6%
[11]; 1000 nM
  cell viability: 100%
[11]; 10000 nM
  cell viability: 102%
[12]; 1 nM
  cell viability: 102%
[12]; 10 nM
  cell viability: 107%
[12]; 100 nM
  cell viability: 98.8%
[12]; 1000 nM
  cell viability: 98.6%
[12]; 10000 nM
  cell viability: 101%
[13]; 1 nM
  cell viability: 91.2%
[13]; 10 nM
  cell viability: 95.1%
[13]; 100 nM
  cell viability: 96.3%
[13]; 1000 nM
  cell viability: 108%
[13]; 10000 nM
  cell viability: 90.8%
[14]; 1 nM
  cell viability: 101%
[14]; 10 nM
  cell viability: 96.8%
[14]; 100 nM
  cell viability: 99.7%
[14]; 1000 nM
  cell viability: 98.1%
[14]; 10000 nM
  cell viability: 101%
[15]; 1 nM
  cell viability: 103%
[15]; 10 nM
  cell viability: 96.2%
[15]; 100 nM
  cell viability: 96.4%
[15]; 1000 nM
  cell viability: 104%
[15]; 10000 nM
  cell viability: 99.1%

## Cc1c[nH]c(=O)n(CCCN2CCN(c3ccccc3OCC(F)(F)F)CC2)c1=O
[2]
  relative viability EC50: > 10 µM
[3]
  relative viability EC50: > 10 µM
[4]
  relative viability EC50: > 10 µM
[5]
  relative viability EC50: > 10 µM
[7]
  drug sensitivity score: 0
[8]
  drug sensitivity score: 0.3
[9]
  drug sensitivity score: 0
[10]
  drug sensitivity score: 0
[12]; 1 nM
  cell viability: 98.7%
[12]; 10 nM
  cell viability: 96.2%
[12]; 100 nM
  cell viability: 95.9%
[12]; 1000 nM
  cell viability: 98.2%
[12]; 10000 nM
  cell viability: 103%
[13]; 1 nM
  cell viability: 90.5%
[13]; 10 nM
  cell viability: 99%
[13]; 100 nM
  cell viability: 99.1%
[13]; 1000 nM
  cell viability: 96.6%
[13]; 10000 nM
  cell viability: 87.4%
[14]; 1 nM
  cell viability: 101%
[14]; 10 nM
  cell viability: 102%
[14]; 100 nM
  cell viability: 100%
[14]; 1000 nM
  cell viability: 101%
[14]; 10000 nM
  cell viability: 102%
[15]; 1 nM
  cell viability: 102%
[15]; 10 nM
  cell viability: 96.2%
[15]; 100 nM
  cell viability: 99.2%
[15]; 1000 nM
  cell viability: 98.7%
[15]; 10000 nM
  cell viability: 105%

## Cc1ccc(S(=O)(=O)c2ccc([N+](=O)[O-])o2)cc1
[1]
  relative viability EC50: 2.16 µM
[2]
  relative viability EC50: 2.09 µM
[3]
  relative viability EC50: 2.33 µM
[4]
  relative viability EC50: 1.47 µM
[5]
  relative viability EC50: 3.06 µM
[6]
  drug sensitivity score: 7.6
[7]
  drug sensitivity score: 7.8
[8]
  drug sensitivity score: 7.2
[9]
  drug sensitivity score: 9.6
[10]
  drug sensitivity score: 5.8
[11]; 1 nM
  cell viability: 97.1%
[11]; 10 nM
  cell viability: 96.6%
[11]; 100 nM
  cell viability: 105%
[11]; 1000 nM
  cell viability: 87.6%
[11]; 10000 nM
  cell viability: 0%
[12]; 1 nM
  cell viability: 84.3%
[12]; 10 nM
  cell viability: 100%
[12]; 100 nM
  cell viability: 102%
[12]; 1000 nM
  cell viability: 86.7%
[12]; 10000 nM
  cell viability: 0%
[13]; 1 nM
  cell viability: 98%
[13]; 10 nM
  cell viability: 89.7%
[13]; 100 nM
  cell viability: 101%
[13]; 1000 nM
  cell viability: 89.9%
[13]; 10000 nM
  cell viability: 0%
[14]; 1 nM
  cell viability: 97.5%
[14]; 10 nM
  cell viability: 95.1%
[14]; 100 nM
  cell viability: 109%
[14]; 1000 nM
  cell viability: 72.4%
[14]; 10000 nM
  cell viability: 0%
[15]; 1 nM
  cell viability: 94.6%
[15]; 10 nM
  cell viability: 99.1%
[15]; 100 nM
  cell viability: 97.9%
[15]; 1000 nM
  cell viability: 98.5%
[15]; 10000 nM
  cell viability: -0.1%
